Measurements published in ChEMBL document CHEMBL5723379, “Affinity On-target Cellular Literature for EUbOPEN Chemogenomic Library” (2024).
Each block holds one molecule with its values, some of them ahead of it.

Tests used:
[1] = target: Lysine-specific demethylase 4A (Homo sapiens) (UniProt O75164); test: Affinity On-target Cellular interaction: (Cellular thermal shift assay (CETSA), U2OS cells) EUB0002543a KDM4A; assay type: functional, cell-based; design: recommended concentration 1 uM; conditions: Affinity On-target Cellular Source Knowledge https://www.nature.com/articles/ncomms14773#Tab1
[2] = target: T1, Peroxisome proliferator-activated receptor alpha (Homo sapiens, UniProt Q07869); test: Affinity On-target Cellular interaction: (Reporter gene assay (HEK293T cells)) EUB0001140a PPARA; assay type: functional, cell-based, HEK-293T; design: mode of action Agonist, recommended concentration 1 uM
T1 sequence (Q07869 whole entry): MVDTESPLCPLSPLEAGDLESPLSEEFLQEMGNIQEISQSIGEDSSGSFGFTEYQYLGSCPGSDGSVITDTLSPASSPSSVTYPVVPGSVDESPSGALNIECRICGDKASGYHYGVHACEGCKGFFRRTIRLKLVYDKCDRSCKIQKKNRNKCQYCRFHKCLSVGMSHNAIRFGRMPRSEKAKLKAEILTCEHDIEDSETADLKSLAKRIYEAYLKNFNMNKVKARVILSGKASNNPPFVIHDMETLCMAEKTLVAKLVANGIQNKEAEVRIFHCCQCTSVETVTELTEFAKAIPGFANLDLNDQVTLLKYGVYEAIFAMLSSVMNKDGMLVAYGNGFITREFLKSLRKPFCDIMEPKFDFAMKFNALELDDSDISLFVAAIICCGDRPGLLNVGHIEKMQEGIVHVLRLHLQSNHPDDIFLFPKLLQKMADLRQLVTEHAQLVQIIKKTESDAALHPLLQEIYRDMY

[3] = target: Nuclear receptor subfamily 1 group D member 2 (Homo sapiens, UniProt Q14995); test: Affinity On-target Cellular interaction: (Reporter gene assay (HEK293T cells)) EUB0001152a NR1D2; assay type: functional, cell-based, HEK-293T; design: mode of action Agonist, recommended concentration 10 uM
[4] = target: Nuclear receptor subfamily 1 group I member 3 (Homo sapiens, UniProt Q14994); test: Affinity On-target Cellular interaction: (Reporter gene assay (HEK293T cells)) EUB0000551aCl NR1I3; assay type: functional, cell-based, HEK-293T; design: mode of action Antagonist, recommended concentration 1 uM
[5] = target: T2, Peroxisome proliferator-activated receptor gamma (Homo sapiens, UniProt P37231); test: Affinity On-target Cellular interaction: (Reporter gene assay (HEK293T cells)) EUB0000571a PPARG; assay type: functional, cell-based, HEK-293T; design: mode of action Agonist, recommended concentration 1 uM
T2 sequence (P37231 whole entry): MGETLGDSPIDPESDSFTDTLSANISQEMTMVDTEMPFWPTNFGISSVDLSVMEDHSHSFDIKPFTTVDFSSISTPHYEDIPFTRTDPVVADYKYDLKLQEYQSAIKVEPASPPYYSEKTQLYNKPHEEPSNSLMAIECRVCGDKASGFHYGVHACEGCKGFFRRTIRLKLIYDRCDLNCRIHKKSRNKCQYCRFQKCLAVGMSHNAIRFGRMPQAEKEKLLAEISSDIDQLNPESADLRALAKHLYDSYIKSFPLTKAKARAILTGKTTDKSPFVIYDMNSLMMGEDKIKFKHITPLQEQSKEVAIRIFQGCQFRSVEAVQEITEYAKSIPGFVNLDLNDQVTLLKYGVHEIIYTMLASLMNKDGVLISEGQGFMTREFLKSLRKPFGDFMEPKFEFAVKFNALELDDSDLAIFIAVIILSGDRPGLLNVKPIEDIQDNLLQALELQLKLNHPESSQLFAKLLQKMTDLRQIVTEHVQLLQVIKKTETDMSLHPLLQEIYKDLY

Bile acid receptor = Bile acid receptor (Homo sapiens, UniProt Q96RI1); test: Affinity On-target Cellular interaction: (Reporter gene assay (HEK293T cells)) EUB0000182b NR1H4; assay type: functional, cell-based, HEK-293T; design: mode of action Agonist, recommended concentration 1 uM
[6] = target: T2, Peroxisome proliferator-activated receptor gamma; test: Affinity On-target Cellular interaction: (Reporter gene assay (HEK293T cells)) EUB0001144a PPARG; assay type: functional, cell-based, HEK-293T; design: mode of action Agonist, recommended concentration 1 uM
[7] = target: T1, Peroxisome proliferator-activated receptor alpha; test: Affinity On-target Cellular interaction: (Reporter gene assay (HEK293T cells)) EUB0001144a PPARA; assay type: functional, cell-based, HEK-293T; design: mode of action Agonist, recommended concentration 1 uM
[8] = target: T3, Oxysterols receptor LXR-beta (Homo sapiens, UniProt P55055); test: Affinity On-target Cellular interaction: (Reporter gene assay (HEK293T cells)) EUB0000572aCl NR1H2; assay type: functional, cell-based, HEK-293T; design: mode of action Agonist, recommended concentration 3 uM
T3 sequence (P55055 whole entry): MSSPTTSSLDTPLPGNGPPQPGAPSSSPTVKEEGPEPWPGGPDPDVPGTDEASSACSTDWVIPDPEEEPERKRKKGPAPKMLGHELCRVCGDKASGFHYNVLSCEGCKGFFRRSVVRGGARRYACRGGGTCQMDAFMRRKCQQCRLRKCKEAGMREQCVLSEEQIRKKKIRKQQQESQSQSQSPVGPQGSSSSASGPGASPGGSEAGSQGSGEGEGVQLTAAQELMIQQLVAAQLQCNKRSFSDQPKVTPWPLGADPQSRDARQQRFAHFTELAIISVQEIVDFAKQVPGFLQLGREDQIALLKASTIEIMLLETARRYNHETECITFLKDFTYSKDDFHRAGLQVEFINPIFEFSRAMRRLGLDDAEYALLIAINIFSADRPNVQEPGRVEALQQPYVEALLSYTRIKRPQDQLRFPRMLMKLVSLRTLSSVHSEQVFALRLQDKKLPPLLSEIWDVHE

Vitamin D3 receptor = Vitamin D3 receptor (Homo sapiens, UniProt P11473); test: Affinity On-target Cellular interaction: (Reporter gene assay (HEK293T cells)) EUB0000582a VDR; assay type: functional, cell-based, HEK-293T; design: mode of action Agonist, recommended concentration 1 uM
[9] = target: Retinoic acid receptor alpha (Homo sapiens, UniProt P10276); test: Affinity On-target Cellular interaction: (Reporter gene assay (HEK293T cells)) EUB0000835a RARA; assay type: functional, cell-based, HEK-293T; design: mode of action Agonist, recommended concentration 1 uM
[10] = target: Retinoic acid receptor beta (Homo sapiens, UniProt P10826); test: Affinity On-target Cellular interaction: (Reporter gene assay (HEK293T cells)) EUB0000835a RARB; assay type: functional, cell-based, HEK-293T; design: mode of action Agonist, recommended concentration 1 uM
[11] = target: Retinoic acid receptor gamma (Homo sapiens, UniProt P13631); test: Affinity On-target Cellular interaction: (Reporter gene assay (HEK293T cells)) EUB0000835a RARG; assay type: functional, cell-based, HEK-293T; design: mode of action Agonist, recommended concentration 1 uM
[12] = target: T2, Peroxisome proliferator-activated receptor gamma; test: Affinity On-target Cellular interaction: (Reporter gene assay (HEK293T cells)) EUB0001143a PPARG; assay type: functional, cell-based, HEK-293T; design: mode of action Agonist, recommended concentration 1 uM
[13] = target: Nucleotide triphosphate diphosphatase NUDT15 (Homo sapiens) (UniProt Q9NV35); test: Affinity On-target Cellular interaction: (Cellular thermal shift assay, HL-60 cells) EUB0002330a NUDT15; assay type: functional, cell-based; design: recommended concentration 1 uM; conditions: Affinity On-target Cellular Source Knowledge https://www.nature.com/articles/s41589-020-0592-z
Chain of Nucleotide triphosphate diphosphatase NUDT15 (Homo sapiens) (Q9NV35 whole entry): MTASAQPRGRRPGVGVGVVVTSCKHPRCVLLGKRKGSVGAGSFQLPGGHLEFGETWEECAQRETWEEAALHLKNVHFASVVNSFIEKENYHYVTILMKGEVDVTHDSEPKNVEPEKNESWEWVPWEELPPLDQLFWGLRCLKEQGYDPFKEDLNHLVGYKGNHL

Chain of Nuclear receptor subfamily 1 group I member 3 (Q14994 whole entry): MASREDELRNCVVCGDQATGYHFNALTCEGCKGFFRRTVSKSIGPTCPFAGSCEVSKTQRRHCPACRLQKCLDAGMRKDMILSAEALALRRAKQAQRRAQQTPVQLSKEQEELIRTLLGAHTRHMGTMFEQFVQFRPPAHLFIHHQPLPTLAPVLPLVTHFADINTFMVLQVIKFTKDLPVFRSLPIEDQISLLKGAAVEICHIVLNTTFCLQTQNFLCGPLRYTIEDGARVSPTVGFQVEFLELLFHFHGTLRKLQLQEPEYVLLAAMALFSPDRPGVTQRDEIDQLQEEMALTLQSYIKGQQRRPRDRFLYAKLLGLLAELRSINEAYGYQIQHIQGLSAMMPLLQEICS
Chain of Retinoic acid receptor alpha (P10276 whole entry): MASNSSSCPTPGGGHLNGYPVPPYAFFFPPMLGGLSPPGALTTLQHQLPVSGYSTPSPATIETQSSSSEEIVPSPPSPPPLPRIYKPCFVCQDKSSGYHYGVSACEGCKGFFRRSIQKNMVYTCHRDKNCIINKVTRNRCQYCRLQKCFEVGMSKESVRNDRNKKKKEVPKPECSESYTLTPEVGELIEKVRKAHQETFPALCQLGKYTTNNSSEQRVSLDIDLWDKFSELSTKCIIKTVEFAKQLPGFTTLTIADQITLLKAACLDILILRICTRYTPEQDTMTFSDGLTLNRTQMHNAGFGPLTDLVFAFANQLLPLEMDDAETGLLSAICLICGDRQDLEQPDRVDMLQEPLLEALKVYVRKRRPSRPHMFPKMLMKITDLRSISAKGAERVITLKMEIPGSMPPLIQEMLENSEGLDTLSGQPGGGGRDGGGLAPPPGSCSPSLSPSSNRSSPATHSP
Chain of Retinoic acid receptor beta (P10826 whole entry): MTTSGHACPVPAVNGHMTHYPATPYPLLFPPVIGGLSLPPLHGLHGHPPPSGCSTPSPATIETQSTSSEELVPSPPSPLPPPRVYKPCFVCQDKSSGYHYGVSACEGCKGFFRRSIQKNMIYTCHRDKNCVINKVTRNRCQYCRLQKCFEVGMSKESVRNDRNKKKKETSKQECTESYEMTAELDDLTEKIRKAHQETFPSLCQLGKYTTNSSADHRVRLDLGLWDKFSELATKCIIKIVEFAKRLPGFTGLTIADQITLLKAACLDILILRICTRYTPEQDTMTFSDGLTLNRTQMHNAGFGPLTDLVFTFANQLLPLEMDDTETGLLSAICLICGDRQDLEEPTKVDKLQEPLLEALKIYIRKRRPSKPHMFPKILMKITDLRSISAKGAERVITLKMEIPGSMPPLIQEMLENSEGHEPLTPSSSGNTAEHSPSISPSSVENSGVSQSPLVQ
Chain of Nuclear receptor subfamily 1 group D member 2 (Q14995 whole entry): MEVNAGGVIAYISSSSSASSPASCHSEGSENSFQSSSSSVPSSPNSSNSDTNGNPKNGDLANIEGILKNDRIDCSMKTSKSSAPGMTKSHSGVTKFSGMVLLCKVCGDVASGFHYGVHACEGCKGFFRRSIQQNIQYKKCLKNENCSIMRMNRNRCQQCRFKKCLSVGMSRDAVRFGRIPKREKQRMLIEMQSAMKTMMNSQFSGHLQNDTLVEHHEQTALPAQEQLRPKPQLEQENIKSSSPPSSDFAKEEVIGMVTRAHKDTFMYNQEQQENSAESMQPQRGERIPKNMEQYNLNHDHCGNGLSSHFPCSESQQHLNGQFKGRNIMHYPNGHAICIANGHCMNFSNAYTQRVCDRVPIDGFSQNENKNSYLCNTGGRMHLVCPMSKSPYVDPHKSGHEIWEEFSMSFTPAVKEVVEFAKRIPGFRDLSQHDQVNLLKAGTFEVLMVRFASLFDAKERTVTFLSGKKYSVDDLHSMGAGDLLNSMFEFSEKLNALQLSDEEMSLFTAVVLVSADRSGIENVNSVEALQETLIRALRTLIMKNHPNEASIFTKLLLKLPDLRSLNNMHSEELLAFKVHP
Chain of Bile acid receptor (Q96RI1 whole entry): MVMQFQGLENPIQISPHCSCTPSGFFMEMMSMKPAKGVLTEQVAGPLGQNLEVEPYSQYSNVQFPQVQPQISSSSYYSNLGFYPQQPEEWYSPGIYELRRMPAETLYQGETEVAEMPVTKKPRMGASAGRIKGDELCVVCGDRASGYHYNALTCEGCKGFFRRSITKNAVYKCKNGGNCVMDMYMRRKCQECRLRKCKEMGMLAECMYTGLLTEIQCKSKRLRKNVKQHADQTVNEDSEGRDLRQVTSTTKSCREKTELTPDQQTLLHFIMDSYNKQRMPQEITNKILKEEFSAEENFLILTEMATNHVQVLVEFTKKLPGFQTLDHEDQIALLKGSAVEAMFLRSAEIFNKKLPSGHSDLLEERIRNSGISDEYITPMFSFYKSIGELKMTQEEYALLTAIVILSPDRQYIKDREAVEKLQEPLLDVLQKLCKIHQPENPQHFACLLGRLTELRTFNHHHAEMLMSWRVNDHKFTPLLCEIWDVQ
Chain of Retinoic acid receptor gamma (P13631 whole entry): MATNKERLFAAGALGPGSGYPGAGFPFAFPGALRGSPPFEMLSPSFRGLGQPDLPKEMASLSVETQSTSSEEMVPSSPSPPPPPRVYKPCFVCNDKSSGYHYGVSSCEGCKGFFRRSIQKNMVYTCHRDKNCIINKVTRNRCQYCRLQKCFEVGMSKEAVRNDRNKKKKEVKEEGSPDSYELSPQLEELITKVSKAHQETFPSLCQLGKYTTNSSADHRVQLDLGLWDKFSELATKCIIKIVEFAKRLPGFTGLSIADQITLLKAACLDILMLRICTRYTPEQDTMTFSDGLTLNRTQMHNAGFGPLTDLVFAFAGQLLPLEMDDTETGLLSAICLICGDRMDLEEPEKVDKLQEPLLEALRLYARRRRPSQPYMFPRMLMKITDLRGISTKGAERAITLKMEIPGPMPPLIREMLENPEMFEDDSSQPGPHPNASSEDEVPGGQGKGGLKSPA
Chain of Lysine-specific demethylase 4A (Homo sapiens) (O75164 whole entry): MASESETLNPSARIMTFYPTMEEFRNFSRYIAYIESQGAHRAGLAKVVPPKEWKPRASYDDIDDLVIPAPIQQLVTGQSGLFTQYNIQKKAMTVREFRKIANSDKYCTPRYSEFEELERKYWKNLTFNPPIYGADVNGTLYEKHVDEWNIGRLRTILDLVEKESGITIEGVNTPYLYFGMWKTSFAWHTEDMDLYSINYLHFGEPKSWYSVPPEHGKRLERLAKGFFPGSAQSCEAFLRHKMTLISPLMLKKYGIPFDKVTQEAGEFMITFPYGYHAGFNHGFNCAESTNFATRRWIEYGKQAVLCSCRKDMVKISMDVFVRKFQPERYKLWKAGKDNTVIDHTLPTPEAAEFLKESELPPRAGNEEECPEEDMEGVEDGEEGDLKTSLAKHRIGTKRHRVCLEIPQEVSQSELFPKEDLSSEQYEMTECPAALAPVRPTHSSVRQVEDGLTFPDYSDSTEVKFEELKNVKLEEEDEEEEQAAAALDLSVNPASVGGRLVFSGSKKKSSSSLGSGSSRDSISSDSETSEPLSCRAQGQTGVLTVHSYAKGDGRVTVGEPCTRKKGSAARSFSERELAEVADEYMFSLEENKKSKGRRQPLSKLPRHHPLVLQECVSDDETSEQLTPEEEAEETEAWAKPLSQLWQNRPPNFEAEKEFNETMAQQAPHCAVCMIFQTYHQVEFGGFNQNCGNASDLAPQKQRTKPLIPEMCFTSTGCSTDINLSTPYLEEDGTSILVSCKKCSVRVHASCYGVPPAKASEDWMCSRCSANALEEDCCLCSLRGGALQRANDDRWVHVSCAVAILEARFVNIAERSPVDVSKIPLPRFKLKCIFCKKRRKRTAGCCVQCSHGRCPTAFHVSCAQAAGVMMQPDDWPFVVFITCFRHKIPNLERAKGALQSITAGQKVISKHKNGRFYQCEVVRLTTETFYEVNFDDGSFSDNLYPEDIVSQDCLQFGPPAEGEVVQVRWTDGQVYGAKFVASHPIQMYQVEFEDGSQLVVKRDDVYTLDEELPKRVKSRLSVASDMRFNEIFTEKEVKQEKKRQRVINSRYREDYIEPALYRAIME
Chain of Vitamin D3 receptor (P11473 whole entry): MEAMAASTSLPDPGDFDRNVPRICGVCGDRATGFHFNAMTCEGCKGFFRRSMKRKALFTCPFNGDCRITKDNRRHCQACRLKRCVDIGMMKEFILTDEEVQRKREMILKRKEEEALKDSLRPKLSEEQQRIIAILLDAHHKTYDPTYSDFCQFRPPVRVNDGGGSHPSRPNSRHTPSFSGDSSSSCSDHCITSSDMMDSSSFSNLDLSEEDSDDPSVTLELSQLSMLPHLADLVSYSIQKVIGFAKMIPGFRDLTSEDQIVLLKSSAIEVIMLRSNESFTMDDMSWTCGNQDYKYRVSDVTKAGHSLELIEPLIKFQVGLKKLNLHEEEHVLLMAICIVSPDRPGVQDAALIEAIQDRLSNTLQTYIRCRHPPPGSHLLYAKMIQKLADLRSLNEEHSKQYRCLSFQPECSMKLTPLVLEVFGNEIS

Structure (SMILES): CC(C)[C@@H]1NC(=O)[C@H](Cc2ccc(O)cc2)NC(=O)[C@@H](CC(=O)O)NC(=O)S[C@@H](C(=O)O)NC(=O)[C@H]([C@H](C)O)NC(=O)[C@H](Cc2ccc(O)cc2)NC(=O)[C@H](Cc2c[nH]c3ccccc23)NC(=O)[C@H](CCCNC(=N)N)NC(=O)[C@H](Cc2c[nH]c3ccccc23)NC(=O)[C@H](C)NC(=O)[C@H](CO)NC(=O)[C@H](CCCNC(=N)N)NC(=O)[C@H]([C@H](C)O)NC(=O)[C@H](CC(N)=O)NC(=O)[C@H](Cc2ccc(O)cc2)NC1=O
K [1]: 285 nM

Structure (SMILES): COc1ccc(OC(=O)N(CC(=O)O)Cc2ccc(OCCc3nc(-c4ccccc4)oc3C)cc2)cc1 [MURAGLITAZAR]
EC50 [2]: 50 nM

Structure (SMILES): COC(=O)/C=C/c1cccc(N(Cc2ccc(-c3ccc(N(C)C)cc3)cc2)C(=O)C2CCCCC2)c1 [FEXARAMINE]
EC50 (Bile acid receptor): 960 nM

Structure (SMILES): O=C(O)Cc1cccc(OCCCN(Cc2cccc(C(F)(F)F)c2Cl)CC(c2ccccc2)c2ccccc2)c1
EC50 [8]: 2100 nM

Structure (SMILES): C=C1/C(=C\C=C2/CCC[C@]3(C)[C@@H]([C@H](C)/C=C/C=C/C(O)(CC)CC)CC[C@@H]23)C[C@@H](O)C[C@@H]1O [SEOCALCITOL]
EC50 (Vitamin D3 receptor): 110 nM

Structure (SMILES): C[C@H]1[C@H]2CC[C@H]3[C@@H]4CC=C5C[C@@H](N(C)C)CC[C@]5(C)[C@H]4CC[C@]23CN1C [CONESSINE]
EC50 [9]: 630 nM | EC50 [10]: 10 nM | EC50 [11]: 501 nM

Second part, the molecule after the results:

EC50 [3]: 11000 nM
Structure (SMILES): CCOC(=O)N1CCC(CN(Cc2ccc(Cl)cc2)Cc2ccc([N+](=O)[O-])s2)C1 (stereo not given) [SR9009]

IC50 [4]: 63 nM
Structure (SMILES): Cc1cccc(CN2CCN(C(c3ccccc3)c3ccc(Cl)cc3)CC2)c1 (stereo not given)

EC50 [5]: 42 nM
Structure (SMILES): COC(=O)C(Cc1ccc(OCCn2c(=O)sc3cc(C(=O)c4ccccc4)ccc32)cc1)C(=O)OC

EC50 [6]: 130 nM | EC50 [7]: 290 nM
Structure (SMILES): CCO[C@@H](Cc1ccc(OCCc2ccc(OS(C)(=O)=O)cc2)cc1)C(=O)O [TESAGLITAZAR]

EC50 [12]: 730 nM
Structure (SMILES): COc1cc2c(cc1CC=C(C)C)C(=O)C[C@@H](c1ccc(O)cc1)O2 [BAVACHININ A]

K [13]: 280 nM
Structure (SMILES): O=C(c1ccc2[nH]ccc2c1)N1CCN(S(=O)(=O)c2ccc3[nH]c(=O)oc3c2)CC1
